Reference: patent US8642633B2, “Di-substituted amides for enhancing glutamatergic synaptic responses” (Cortex Pharmaceutical, Inc., priority 2007, dated 2014)

What was measured:
[1] = test system: AMPA receptor; assay: In vivo electrophysiology: field EPSP amplitude in the dentate gyrus of anesthetized animals; design: species or system rat
Procedure: A. Enhancement of AMPA Receptor Function In Vivo.
Synaptic responses mediated by AMPA receptors are increased according to the method of the invention, using the compounds described herein.
(§1) The electrophysiological effects of the invention compounds were tested in vivo in anesthetized animals according to the following procedures. Animals are maintained under anesthesia by phenobarbital administered using a Hamilton syringe pump. Stimulating and recording electrodes are inserted into the perforant path and dentate gyrus of the hippocampus, respectively. Once electrodes are implanted, a stable baseline of evoked responses are elicited using single monophasic pulses (100 μs pulse duration) delivered at 3/min to the stimulating electrode. Field EPSPs are monitored until a stable baseline is achieved (about 20-30 min), after which a solution of test compound is injected intraperitoneally and evoked field potentials are recorded. Evoked potentials were recorded for approximately 2 h following drug administration or until the amplitude of the field EPSP returns to baseline. In the latter instance, it is common that an iv administration is also carried out with an appropriate dose of the same test compound. Invention compounds were assayed in the in vivo electrophysiology assay described above and data for representative test compounds is shown in column 1 in Table 1.
The electrophysiological effects of invention compounds were tested in vivo in anesthetized animals according to the following procedures.
as §1, with “Animals” for “The electrophysiological effects of the invention compounds were tested in vivo in anesthetized animals according to the following procedures. Animals”, “are” for “were”, “compound.” for “compound. Invention compounds were assayed in the in vivo electrophysiology assay described above and data for representative test compounds is shown in column 1 in Table 1.”

[2] = test system: d-amphetamine stimulated locomotion in mice; assay: Inhibition of d-amphetamine stimulated locomotion; type: in vivo; conditions: Mus musculus, ip, 18 mpk i.p., d-amphetamine 2 mg/kg
Procedure: B. Behavioral Testing: Inhibition of d-Amphetamine Stimulated Locomotion
The ability of the invention compounds to inhibit d-Amphetamine stimulated locomotor activity was assayed according to the following procedure. Male CD1 mice, 25-30 gm body weight, were brought into the experimental room and allowed at least 30 min of acclimation. Each mouse was placed into the testing enclosure with an infrared beam array that automatically monitors the animal's activity. Mice were habituated in the testing enclosure for 20 min, and then returned to their home cage. Mice were dosed intraperitoneally with test compound in appropriate vehicle 5 minutes before d-Amphetamine injection (2 mpk). Ten minutes after d-Amphetamine injection, mice were tested for locomotor activity for a total of […]. The data was computer collected and expressed as “arbitrary movement units.” All data were analyzed by comparing the groups treated with the test compound to the vehicle control group. The data shown is the % inhibition of hyperactivity induced by acute administration of 2 mg/kg d-amphetamine in mice. The compounds tested produced a statistically significant inhibition of d-amphetamine stimulated locomotion.
Male CD1 mice, 25-30 gm body weight, were brought into the experimental room and allowed at least 30 min of acclimation. Each mouse was placed into the testing enclosure with an infrared beam array that automatically monitors the animal's activity. Mice were habituated in the testing enclosure for 20 min, and then returned to their home cage. Mice were dosed intraperitoneally with test compound in appropriate vehicle 5 minutes before d-Amphetamine injection. Ten minutes after d-Amphetamine injection, mice were tested for locomotor activity for a total of 15 minutes. The data was computer collected and expressed as “arbitrary movement units.” All data were analyzed by comparing the groups treated with the test compound to the vehicle control group.

[3] = dosed intravenously (footnote 3)

melting point [°C] | Compound | In vivo Electrophysiology: % increase in the amplitude of the field EPSP in the dentate gyrus of rat ([1]; 10mpk i.p.) [%] | also measured
 | O=C(c1ccc2nccnc2c1)N1CCCCC1 [CX516, 1-(quinoxalin-6-ylcarbonyl)piperidine, reference compound] |  | increase in amplitude of the field EPSP ([1]; rat dentate gyrus, 50 mg/kg i.p.): 9%
134 to 135 | CN(C(=O)c1ccc2nonc2c1)C1CCCCC1 [Example 4, N-Cyclohexyl-N-methyl-[2,1,3]-benzoxadiazole-5-carboxamide] | 17 | inhibition in vivo at 18 mg/kg [2]: 80%
110 to 111 | CN(C(=O)c1ccc2nonc2c1)C1CCCC1 [Example 5, N-Cyclopentyl-N-methyl-[2,1,3]-benzoxadiazole-5-carboxamide] | 15 | 
51 to 52 | CN(C(=O)c1ccc2nonc2c1)C1CCC1 [Example 6, N-Cyclobutyl-N-methyl-[2,1,3]-benzoxadiazole-5-carboxamide] | 10 | inhibition in vivo at 18 mg/kg [2]: 37%
222 to 223 | CN(C(=O)c1ccc2nonc2c1)[C@H]1CC[C@@H](C#N)CC1 [Example 10, N-(cis-4-Cyanocyclohexyl)-N-methyl-[2,1,3]-benzoxadiazole-5-carboxamide] |  | 
 | CN(C(=O)c1ccc2nonc2c1)[C@H]1CC[C@H](C#N)CC1 [Example 11, N-(trans-4-cyanocyclohexyl)-N-methyl-[2,1,3]-benzoxadiazole-5-carboxamide] | 12 | 
 | CN(C(=O)c1ccc2nonc2c1)C1CCOCC1 [Example 12, N-Methyl-N-tetrahydro-2H-pyran-4-yl-[2,1,3]-benzoxadiazole-5-carboxamide] | 20 | inhibition in vivo at 18 mg/kg [2]: 66%
204 to 205 | O=C(NC1CCCOC1)c1ccc2nonc2c1 (stereo not shown) [Example 15, N-(Tetrahydro-2H-pyran-3-yl)-[2,1,3]-benzoxadiazole-5-carboxamide] |  | 
102 to 104 | CCN(C(=O)c1ccc2nonc2c1)C1CCOCC1 [Example 17, N-Ethyl-N-tetrahydro-2H-pyran-4-yl-[2,1,3]-benzoxadiazole-5-carboxamide] | 12 | inhibition in vivo at 18 mg/kg [2]: 23%
51 to 52 | CCN(C(=O)c1ccc2nonc2c1)C1CCCCC1 [Example 18, N-Cyclohexyl-N-ethyl-[2,1,3]-benzoxadiazole-5-carboxamide] |  | 
71 to 72 | CN(CC1CCCCC1)C(=O)c1ccc2nonc2c1 [Example 19, N-(Cyclohexylmethyl)-N-methyl-[2,1,3]-benzoxadiazole-5-carboxamide] |  | 
105 to 106 | CN(Cc1ccccc1)C(=O)c1ccc2nonc2c1 [Example 20, N-Benzyl-N-methyl-[2,1,3]-benzoxadiazole-5-carboxamide] |  | 
108 to 109 | O=C(c1ccc2nonc2c1)N(C1CCOCC1)C1CC1 [Example 24, N-Cyclopropyl-N-tetrahydro-2H-pyran-4-yl-[2,1,3]-benzoxadiazole-5-carboxamide] |  | 
134 to 135 | O=C(c1ccc2nonc2c1)N(CC(F)(F)F)C1CCOCC1 [Example 25, N-Tetrahydro-2H-pyran-4-yl-N-(2,2,2-trifluoroethyl)-[2,1,3]-benzoxadiazole-5-carboxamide] |  | In vivo Electrophysiology: % increase in the amplitude of the field EPSP in the dentate gyrus of rat [1, 3]: 10%^3
98 to 100 | CN(C(=O)c1ccc2nonc2c1)C1CCN(C(=O)OC(C)(C)C)CC1 [Example 26, tert-Butyl-4-[([2,1,3]-benzoxadiazol-5-ylcarbonyl)(methyl)amino]piperidine-1-carboxylate] |  | 
> 260 | CN1CCC(N(C)C(=O)c2ccc3nonc3c2)CC1 [Example 28, N-Methyl-N-(1-methylpiperidin-4-yl)-[2,1,3]-benzoxadiazole-5-carboxamide] |  | 
 | CN(C(=O)c1ccc2nonc2c1)C1CCSCC1 [Example 33, N-Methyl-N-(tetrahydro-2H-thiopyran-4-yl)-[2,1,3]-benzoxadiazole-5-carboxamide] |  | In vivo Electrophysiology: % increase in the amplitude of the field EPSP in the dentate gyrus of rat [1, 3]: 16%^3
130 to 131 | CN(C(=O)c1ccc2nccnc2c1)C1CCOCC1 [Example 36, N-Methyl-N-tetrahydro-2H-pyran-4-ylquinoxaline-6-carboxamide] |  | In vivo Electrophysiology: % increase in the amplitude of the field EPSP in the dentate gyrus of rat [1, 3]: 5%^3
183 to 184 | CN(C(=O)c1ccc2nonc2c1)C1CCC(=O)CC1 [Example 37, N-Methyl-N-(4-oxocyclohexyl)-[2,1,3]-benzoxadiazole-5-carboxamide] | 18 | inhibition in vivo at 18 mg/kg [2]: 100%
137 to 138 | CN(C(=O)c1ccc2nonc2c1)C1CCC(F)(F)CC1 [Example 40, N-(4,4-Difluorocyclohexyl)-N-methyl-[2,1,3]-benzoxadiazole-5-carboxamide] | 18 | inhibition in vivo at 18 mg/kg [2]: 84%
 | CN(C(=O)c1ccc2nonc2c1)[C@H]1CC[C@H](O)CC1 [Example 51, N-(4-trans-Hydroxycyclohexyl)-N-methyl-[2,1,3]-benzoxadiazole-5-carboxamide] | 21 | inhibition in vivo at 18 mg/kg [2]: 100%
 | CO[C@H]1CC[C@H](N(C)C(=O)c2ccc3nonc3c2)CC1 [Example 53, N-(trans-4-Methoxycyclohexyl)-N-methyl-[2,1,3]-benzoxadiazole-5-carboxamide] | 17 | inhibition in vivo at 18 mg/kg [2]: 94%
 | CO[C@H]1CC[C@H](N(C)C(=S)c2ccc3nonc3c2)CC1 [Example 54, N-(trans-4-Methoxycyclohexyl)-N-methyl-[2,1,3]-benzoxadiazole-5-carbothioamide] |  | In vivo Electrophysiology: % increase in the amplitude of the field EPSP in the dentate gyrus of rat [1, 3]: 18%^3
 | CN(C(=O)c1ccc2nonc2c1)[C@H]1CC[C@H](n2ncnn2)CC1 [Example 56, N-Methyl-N-[trans-4-(2H-tetrazol-2-yl)cyclohexyl]-[2,1,3]-benzoxadiazole-5-carboxamide] | 19 | 
119 to 120 | CN(C(=O)c1ccc2nonc2c1)C1CCCC(F)(F)C1 (stereo not shown) [Example 62, N-Methyl-N-(3,3-difluorocyclohexyl)-[2,1,3]-benzoxadiazole-5-carboxamide] |  | 
101 to 102 | CN(C(=O)c1ccc2nonc2c1)C1CCCCC1(F)F (stereo not shown) [Example 65, N-Methyl-N-(2,2-difluorocyclohexyl)-[2,1,3]-benzoxadiazole-5-carboxamide] |  | 
91 to 92 | O=C(NC1CCOC(O)C1)c1ccc2nonc2c1 (stereo not shown) [Example 66, N-(2-Hydroxytetrahydro-2H-pyran-4-yl)-[2,1,3]-benzoxadiazole-5-carboxamide] |  | 
169 to 171 | CN(C(=O)c1ccc2nonc2c1)C1CCOC(=O)C1 (stereo not shown) [Example 68, N-Methyl-N-(2-oxotetrahydro-2H-pyran-4-yl)-[2,1,3]-benzoxadiazole-5-carboxamide] |  | 
< 90 | CN(C(=O)c1ccc2nonc2c1)C1CCOC(O)C1 (stereo not shown) [Example 69, N-(2-Hydroxytetrahydro-2H-pyran-4-yl)-N-methyl-[2,1,3]-benzoxadiazole-5-carboxamide] |  | 
 | CN(C(=O)c1ccc2nonc2c1)[C@@H]1CCOC1 [Example 73, N-Methyl-N—(R)-tetrahydrofuran-3-yl-[2,1,3]-benzoxadiazole-5-carboxamide] | 13 | 
